According to the NIST ThermoML archive (doi:10.1016/j.jct.2004.12.016):
Where “and” joins values, the source holds several entries; their conditions need not be identical. Equal values may be shown once.

Details: for vapor or sublimation pressure: Closed cell (Static) method; for mass density: Fluid (supercritical or subcritical phases), isochoric method

N [ammonia]
Details | Critical density [kg/m3] | Critical temperature [K] | mass density | vapor or sublimation pressure
310 K, Liquid | – | – | – | 1423.6 kPa [middle of 6 runs]
350 K, Liquid | – | – | – | 3867 kPa [middle of 5 runs]
400 K, Liquid | – | – | – | 10303 kPa [middle of 4 runs]
404.5 K, Liquid | – | – | – | 11148 kPa and 11151 kPa and 11150 kPa
405.5 K, Liquid | – | – | – | 11343 kPa
405.53 K, Liquid | – | – | – | 11351 kPa
405.54 K, Liquid | – | – | – | 11352 kPa and 11354 kPa and 11353 kPa
405.55 K, 11351 kPa | – | – | 235.01 kg/m3 | –
405.55 K, 11355 kPa | – | – | 249.99 kg/m3 | –
405.55 K, 11359 kPa | – | – | 255.19 kg/m3 | –
405.55 K, Liquid | – | – | – | 11356 kPa [middle of 5 runs]
405.56 K, 11355 kPa | – | – | 242.91 kg/m3 and 244.06 kg/m3 | –
405.56 K, 11356 kPa | – | – | 241.93 kg/m3 and 242.97 kg/m3 | –
405.56 K, 11357 kPa | – | – | 244.01 kg/m3 | –
405.56 K, 11358 kPa | – | – | 244.95 kg/m3 and 243.49 kg/m3 | –
405.56 K, 11359 kPa | – | – | 244 kg/m3 | –
405.57 K, 11358 kPa | – | – | 242.95 kg/m3 | –
405.57 K, 11360 kPa | – | – | 241.94 kg/m3 and 244.1 kg/m3 and 245.04 kg/m3 | –
405.57 K, 11361 kPa | – | – | 243.96 kg/m3 | –
405.57 K, 11370 kPa | – | – | 242.83 kg/m3 | –
405.58 K, 11360 kPa | – | – | 243.01 kg/m3 | –
405.58 K, 11362 kPa | – | – | 242.02 kg/m3 and 244.08 kg/m3 and 244.99 kg/m3 | –
405.6 K, 11355 kPa | – | – | 224.92 kg/m3 | –
405.6 K, 11356 kPa | – | – | 229.9 kg/m3 | –
405.6 K, 11362 kPa | – | – | 235.14 kg/m3 | –
405.6 K, 11363 kPa | – | – | 239.9 kg/m3 | –
405.6 K, 11367 kPa | – | – | 245.12 kg/m3 | –
Liquid, Visual observation in an unstirred cell | – | 405.56 | – | –
Liquid, metal-bellows volumometer | 244 | – | – | –
